Data: patent US10723716B2, “Alpha-helix mimetics as modulators of Abeta self-assembly” (New York University, priority 2016, dated 2020)
“Also recorded” adds a separate entry of the source.

Legend:
[1] = target: T1, Aβ42 (Homo sapiens, UniProt P05067); test: ELISA with Aβ oligomer-specific antibody (OMAB); format: biochemical; settings: for Aβ42 oligomers by ELISA on delayed addition: 2 μM Aβ42, compound added at 3 h and 6 h, equimolar; for ELISA absorbance (soluble Aβ42 oligomers, OMAB): Aβ42 incubated with compound, equimolar ratio, all time points
T1 construct: Cleavage of APP results in several Aβ isoforms; The predominant species are Aβ42 and Aβ40; purchased Anaspec (Fremont, Calif., USA)
T1 sequence (P05067 672-713 limits assumed): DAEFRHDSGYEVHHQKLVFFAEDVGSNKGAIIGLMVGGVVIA
Method: The ELISA was performed according to a previously published method (see Lindhagen-Persson, M.; Brännström, K.; Vestling, M.; Steinitz, M.; Olofsson, A. PLoS ONE 2010, 5, e13928). A Nunc-Immuno MaxiSorp plate (Sigma Aldrich, St. Louis, Mo., USA) was incubated with 2 μg mL^−1 Aβ oligomer-specific antibody (OMAB, Agrisera, Sweden) in PBS buffer overnight at 4° C. (200 μl/well). Wells were blocked with 5% fat-free milk in PBS buffer with 0.1% Tween 20 (PBST) for 1 h at 4° C. and washed with PBST buffer (×3). Wells were then treated with Aβ42 samples overnight at 4° C. […] Samples were diluted by 1:30 in PBS buffer before adding to a 96-well plate. After adding Aβ42 samples, the wells were washed (×3) with PBST buffer followed by the addition of 6E10 antibody (1/1000 dilution in 5% nonfat free milk in PBST buffer) for 1 h at r.t. Wells were washed (×5) with PBST buffer and treated with an anti-mouse HRP-conjugated IgG (1/10,000 dilution in 5% nonfat free milk in PBST buffer). Wells were washed (×5) with PBST buffer and treated with TMB Peroxidase EIA Substrate Kit (Biorad, Hercules, Calif., USA). The plates were developed until the color of the solution turned blue. The reaction was stopped by adding 100 μL of 1N H2SO4 to each well. The color of the solution changed to yellow from blue. The absorbance was recorded at 450 nm on a FlexStation 3 Multi-Mode Microplate reader from Molecular Devices (Sunnyvale, Calif., USA). Each sample was repeated in triplicate.

[2] = target: T1, Aβ42; test: Seed-catalyzed kinetic assay, Aβ42; format: biochemical; settings: equimolar ratio, preformed fibers (seeds)
Method: Seeds of Aβ40/Aβ42 were prepared by incubating 200 μM of Aβ40/Aβ42 in phosphate buffer at room temperature. The samples were aged for 48 h and the formation of fibers was confirmed by TEM and ThT before storage at −20° C. until use. For the aggregation of Aβ40, 10% (based on the monomeric Aβ40, v/v) seeds were added along with ThT in phosphate buffer to the 96-well plate. The aggregation was initiated by the addition of monomeric Aβ40 followed by gentle mixing. The process was similar in the case of Aβ42 except that the seed concentration was 5% (based on the monomeric Aβ42, v/v).
The seeds were generated by aging 200 μM Aβ peptides for 48 h in phosphate buffer with occasional vortexing. The concentration of seeds was calculated based on the monomeric concentration of Aβ.

[3] = target: T1, Aβ42; test: Transmission electron microscopy (TEM) of Aβ42; format: biochemical; settings: for Aβ42 oligomers seen by TEM after addition to preformed oligomers: 5 μM Aβ42, compound added to preformed oligomers (2 h), equimolar
Method: Aβ42 (5 μM) was incubated in phosphate buffer in the absence and presence of the compounds of the invention at various time intervals and stoichiometric ratios. Aliquots of these samples were then applied to glow-discharged carbon-coated 300-mesh copper grids for 2 min and dried. Grids were negatively stained with uranyl acetate (2%, w/v) and dried. Micrographs of grids were examined on a Phillips CM12 Cryoelectron Microscope equipped with Gatan 4k×2.7k CCD camera at 120-kV accelerating voltage.

[4] = DLS and UV-Vis probe of colloidal aggregation of the compound; format: physicochemical
Method: UV-Vis was employed to probe the chemical aggregation of ADH-41 under kinetic assay conditions. The measurements were carried out on a double beam Carry 100 Bio spectrophotometer (Agilent Technologies, Santa Clara, Calif.) controlled by Cary WinUV software (version=3.0).
Dynamic light scattering (DLS) and ultraviolet-visible (UV-Vis) spectroscopy was employed to probe the micelle forming capacity of ADH-41.

[5] = target: T2, Aβ12-28 (Homo sapiens, UniProt P05067); test: Circular dichroism (CD) spectroscopy of Aβ12-28; format: biochemical; settings: Aβ12-28, 20% TFE, equimolar ratio
T2 construct: Aβ12-28, a well-characterized subdomain of Aβ42; purchased Anaspec (Fremont, Calif., USA)

[6] = target: T3, Aβ40 (Homo sapiens, UniProt P05067); test: Transmission electron microscopy (TEM) of Aβ40; format: biochemical
T3 construct: Cleavage of APP results in several Aβ isoforms; The predominant species are Aβ42 and Aβ40; purchased Anaspec (Fremont, Calif., USA)
T3 sequence (P05067 672-711 limits assumed): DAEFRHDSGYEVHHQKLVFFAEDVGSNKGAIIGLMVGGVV

[7] = target: T4, IAPP (Homo sapiens, UniProt P10997); test: Lipid (LUV) catalyzed IAPP aggregation, ThT; format: biochemical; settings: 10 μM IAPP, LUVs (DOPG:DOPC 1:1, 600 μM), equimolar ratio
T4 construct: purchased Anaspec (Fremont, Calif., USA)
T4 sequence (P10997 34-70 limits assumed): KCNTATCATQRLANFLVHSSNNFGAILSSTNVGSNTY
Method: LUVs were prepared using an equimolar ratio of dioleoylphosphatidylglycerol (DOPG) and dioleoylphosphatidylcholine (DOPC). A solution of DOPG and DOPC (10 mg/mL each) in chloroform was mixed, dried over a stream of argon (g) for 1 h, and then lyophilized for 6 h (0.1×10^−3 bar). The solid was then rehydrated in 1 mL phosphate buffer for 30 min. The turbid solution (10 mg/mL, 1:1, DOPG:DOPC) was then extruded (21 times) through 100 nm diameter filters (Whatman, GE Healthcare, Marlborough, Mass., USA). The concentration of the phospholipid content in the extruded material was confirmed by calculating total phosphorus using total phosphate assay as described in Chen, P. S.; Toribara, T. Y.; Warner, H. Anal. Chem. 1956, 28, 1756-1758.
The effect of the α-helical mimetics was also assessed on the membrane associated α-helical conformation of IAPP.

| SMILES | Aβ42 oligomers by ELISA on delayed addition [1] | ELISA absorbance (soluble Aβ42 oligomers, OMAB) [1] | effect on seed-catalyzed Aβ42 fibrillation [2] | Aβ42 oligomers seen by TEM after addition to preformed oligomers [3] | fibers of Aβ42 seen by TEM ([3]; 5 μM Aβ42, equimolar ratio, after 12 h) | concentration range over which absorbance is linear ([4]; absorbance at 351 nm, phosphate buffer pH 7.4) [µM] | diameter (from volume) of compound particles by DLS ([4]; phosphate buffer (150 mM KCl, 50 mM NaPi, pH 7.4), 20° C.) | conformation of Aβ12-28 (far UV-CD) [5] | fiber formation of Aβ40 seen by TEM ([6]; Aβ40 incubated with ADH-41, after 5 days) | aggregates of Aβ40 seen by TEM ([6]; equimolar ratio) | Aβ40 species seen by TEM ([6]; substoichiometric ratio 1:0.1 (Aβ40:ADH-41)) | rel. t50 of IAPP fibrillation [7] | fibers of Aβ42 seen by TEM ([3]; 5 μM Aβ42, 1:0.1 (Aβ42:ADH-41), 24 h) | oligomers/fibers of Aβ42 seen by TEM ([3]; 5 μM Aβ42, 1:1 or 1:0.5 (Aβ42:ADH-41), even after 2 days) | elongated fibers seen by TEM in seed-catalyzed Aβ42 aggregation ([3]; 20 μM Aβ42 + seeds, equimolar ratio, 24 h) |
| --- | --- | --- | --- | --- | --- | --- | --- | --- | --- | --- | --- | --- | --- | --- | --- |
| COC(=O)c1ccc(NC(=O)c2ccc(NC(=O)c3ccc(NC(=O)c4ccc([N+](=O)[O-])c(OCC(C)C)n4)c(OCc4ccccc4)n3)c(OCC(=O)O)n2)c(OCC(=O)O)n1 [ADH-31] | no evidence of oligomers | significantly lower | completely suppressed | No formation of Aβ42 oligomers | no fibers were recorded | – | – | – | – | – | – | – | – | – | – |
| COC(=O)c1ccc(NC(=O)c2ccc(NC(=O)c3ccc([N+](=O)[O-])c(OCc4ccccc4)n3)c(OCCCN)n2)c(OCCCN)n1 [ADH-41] | no evidence of oligomers | significantly lower | completely arrested; also recorded: completely inhibits; also recorded: completely suppressed | No formation of Aβ42 oligomers | – | 10 to 100 | below 10 nm | strong α-helical conformation | scant evidence of fiber formation | No aggregates were visible | short protofibrils | 0.8±0.2 | sparse population of fibers | no formation of oligomers/fibers | no elongated fibers were observed |
